{
  "source": "ChEMBL document CHEMBL5696442",
  "about": "“Discovery of type II inhibitors of TGFβ-activated kinase 1 (TAK1) and mitogen-activated protein kinase kinase kinase kinase 2 (MAP4K2)” (J Med Chem, 2015)",
  "key": {"[1]": {"target": "T1, PAN2-PAN3 deadenylation complex subunit PAN3 (Homo sapiens) (UniProt Q58A45)", "T1 sequence (whole entry)": "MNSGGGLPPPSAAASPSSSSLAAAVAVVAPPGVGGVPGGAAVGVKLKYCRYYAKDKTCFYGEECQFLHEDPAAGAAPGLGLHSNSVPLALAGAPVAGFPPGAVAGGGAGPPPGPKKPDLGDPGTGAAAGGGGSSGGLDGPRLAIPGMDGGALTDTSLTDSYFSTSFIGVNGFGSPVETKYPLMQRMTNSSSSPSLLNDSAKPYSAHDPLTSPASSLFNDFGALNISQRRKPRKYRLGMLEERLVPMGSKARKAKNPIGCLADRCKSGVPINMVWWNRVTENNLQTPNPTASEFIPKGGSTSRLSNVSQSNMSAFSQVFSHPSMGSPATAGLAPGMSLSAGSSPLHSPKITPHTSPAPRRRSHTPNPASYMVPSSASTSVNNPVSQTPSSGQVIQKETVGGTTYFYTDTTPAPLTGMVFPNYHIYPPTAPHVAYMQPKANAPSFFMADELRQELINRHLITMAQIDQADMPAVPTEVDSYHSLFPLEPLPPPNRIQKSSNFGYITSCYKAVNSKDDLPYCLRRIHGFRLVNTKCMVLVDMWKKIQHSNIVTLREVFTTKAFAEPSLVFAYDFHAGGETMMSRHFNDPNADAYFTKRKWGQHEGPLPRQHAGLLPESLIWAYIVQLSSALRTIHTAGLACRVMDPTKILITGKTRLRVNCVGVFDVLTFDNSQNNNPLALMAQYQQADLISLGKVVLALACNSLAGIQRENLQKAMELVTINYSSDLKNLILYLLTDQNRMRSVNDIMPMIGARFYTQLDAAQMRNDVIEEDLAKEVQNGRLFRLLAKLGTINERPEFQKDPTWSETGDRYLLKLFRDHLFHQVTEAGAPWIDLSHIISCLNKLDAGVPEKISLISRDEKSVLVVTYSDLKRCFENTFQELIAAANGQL", "test": "Inhibition of PAN3 KD labeling site in human Huh-7 cells at 10 uM by KiNativ Profiling analysis relative to control", "type": "cell-based"}, "[2]": {"target": "Bone morphogenetic protein receptor type-2 (Homo sapiens) (UniProt Q13873)", "sequence (Q13873 whole entry)": "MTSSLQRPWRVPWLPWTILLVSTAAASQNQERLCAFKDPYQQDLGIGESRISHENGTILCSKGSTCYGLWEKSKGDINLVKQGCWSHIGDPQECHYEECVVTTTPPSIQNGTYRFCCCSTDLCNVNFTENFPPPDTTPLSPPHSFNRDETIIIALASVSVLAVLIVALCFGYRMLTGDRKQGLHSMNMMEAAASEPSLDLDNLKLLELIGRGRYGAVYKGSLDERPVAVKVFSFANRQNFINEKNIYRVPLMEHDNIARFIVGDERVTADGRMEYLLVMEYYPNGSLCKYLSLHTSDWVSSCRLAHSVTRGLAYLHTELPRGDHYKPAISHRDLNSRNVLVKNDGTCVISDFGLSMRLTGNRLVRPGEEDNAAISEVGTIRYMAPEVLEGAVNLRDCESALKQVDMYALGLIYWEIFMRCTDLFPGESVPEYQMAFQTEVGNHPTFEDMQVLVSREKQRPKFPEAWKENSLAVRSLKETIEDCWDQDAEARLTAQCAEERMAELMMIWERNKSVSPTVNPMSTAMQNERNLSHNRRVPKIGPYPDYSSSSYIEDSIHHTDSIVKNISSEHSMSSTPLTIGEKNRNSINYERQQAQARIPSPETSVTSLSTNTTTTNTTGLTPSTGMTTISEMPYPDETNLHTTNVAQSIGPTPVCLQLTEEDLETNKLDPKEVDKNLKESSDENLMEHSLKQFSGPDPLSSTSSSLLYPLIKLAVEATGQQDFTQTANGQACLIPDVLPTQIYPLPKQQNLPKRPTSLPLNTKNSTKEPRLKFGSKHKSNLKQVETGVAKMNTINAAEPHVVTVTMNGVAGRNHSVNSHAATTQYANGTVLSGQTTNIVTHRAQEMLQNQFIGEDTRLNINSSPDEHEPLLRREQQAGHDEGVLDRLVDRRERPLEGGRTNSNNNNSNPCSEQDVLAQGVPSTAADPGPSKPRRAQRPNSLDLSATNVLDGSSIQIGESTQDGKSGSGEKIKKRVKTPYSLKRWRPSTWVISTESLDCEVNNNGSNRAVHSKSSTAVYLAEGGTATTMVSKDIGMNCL", "test": "Inhibition of BMPR2 (unknown origin) at 10 uM by Ambit Kinomescan binding assay"}, "[3]": {"target": "T2, Myotonin-protein kinase (Homo sapiens) (UniProt Q09013)", "T2 sequence (whole entry)": "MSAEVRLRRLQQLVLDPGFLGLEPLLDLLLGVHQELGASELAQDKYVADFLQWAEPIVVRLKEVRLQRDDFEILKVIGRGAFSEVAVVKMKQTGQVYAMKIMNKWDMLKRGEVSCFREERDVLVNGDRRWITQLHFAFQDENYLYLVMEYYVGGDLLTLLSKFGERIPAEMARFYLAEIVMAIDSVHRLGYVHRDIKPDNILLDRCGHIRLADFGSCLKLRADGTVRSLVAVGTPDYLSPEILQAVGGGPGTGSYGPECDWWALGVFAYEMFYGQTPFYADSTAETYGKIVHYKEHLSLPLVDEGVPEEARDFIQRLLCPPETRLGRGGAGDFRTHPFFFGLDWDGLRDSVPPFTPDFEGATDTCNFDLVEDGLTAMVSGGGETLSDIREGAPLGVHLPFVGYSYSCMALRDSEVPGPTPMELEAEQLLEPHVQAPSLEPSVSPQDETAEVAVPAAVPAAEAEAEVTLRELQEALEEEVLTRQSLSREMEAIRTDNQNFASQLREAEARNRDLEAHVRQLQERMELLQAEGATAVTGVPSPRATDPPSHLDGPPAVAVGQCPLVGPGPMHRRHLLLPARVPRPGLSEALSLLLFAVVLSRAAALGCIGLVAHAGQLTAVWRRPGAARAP", "test": "Inhibition of DMPK1 K2 labeling site in human Huh-7 cells at 1 uM by KiNativ Profiling analysis relative to control", "type": "cell-based"}, "[4]": {"target": "Serine/threonine-protein kinase mTOR (Homo sapiens) (UniProt P42345)", "test": "Inhibition of FRAP ATP labeling site in human Huh-7 cells at 10 uM by KiNativ Profiling analysis relative to control", "type": "cell-based"}, "[5]": {"target": "Ribosomal protein S6 kinase alpha-3 (Homo sapiens) (UniProt P51812)", "sequence (P51812 whole entry, the tested form may be a part)": "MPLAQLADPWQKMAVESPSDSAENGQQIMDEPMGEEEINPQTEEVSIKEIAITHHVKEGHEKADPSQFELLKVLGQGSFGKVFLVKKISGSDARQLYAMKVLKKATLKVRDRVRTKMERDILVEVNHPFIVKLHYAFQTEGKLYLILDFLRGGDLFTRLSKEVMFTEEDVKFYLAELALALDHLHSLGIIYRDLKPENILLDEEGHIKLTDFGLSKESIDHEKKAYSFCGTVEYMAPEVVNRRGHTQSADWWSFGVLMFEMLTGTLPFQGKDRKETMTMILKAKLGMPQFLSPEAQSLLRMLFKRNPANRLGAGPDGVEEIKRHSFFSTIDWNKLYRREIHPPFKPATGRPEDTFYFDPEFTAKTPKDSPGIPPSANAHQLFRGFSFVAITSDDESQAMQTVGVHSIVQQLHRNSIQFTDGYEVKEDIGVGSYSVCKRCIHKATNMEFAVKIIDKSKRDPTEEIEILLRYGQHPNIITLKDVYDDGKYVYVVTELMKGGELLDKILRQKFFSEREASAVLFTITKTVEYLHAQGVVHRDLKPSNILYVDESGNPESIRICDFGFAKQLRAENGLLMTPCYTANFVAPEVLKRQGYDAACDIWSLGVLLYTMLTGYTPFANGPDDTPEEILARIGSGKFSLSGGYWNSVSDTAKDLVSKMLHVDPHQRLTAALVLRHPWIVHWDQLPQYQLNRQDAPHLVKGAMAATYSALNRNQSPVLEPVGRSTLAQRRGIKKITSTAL", "test": "Inhibition of RSK2 domain1 Lys2 labeling site in human Huh-7 cell lysate at 1 uM by KiNativ Profiling analysis relative to control", "type": "subcellular"}, "[6]": {"target": "eIF-2-alpha kinase GCN2 (Homo sapiens) (UniProt Q9P2K8)", "sequence (Q9P2K8 whole entry, the tested form may be a part)": "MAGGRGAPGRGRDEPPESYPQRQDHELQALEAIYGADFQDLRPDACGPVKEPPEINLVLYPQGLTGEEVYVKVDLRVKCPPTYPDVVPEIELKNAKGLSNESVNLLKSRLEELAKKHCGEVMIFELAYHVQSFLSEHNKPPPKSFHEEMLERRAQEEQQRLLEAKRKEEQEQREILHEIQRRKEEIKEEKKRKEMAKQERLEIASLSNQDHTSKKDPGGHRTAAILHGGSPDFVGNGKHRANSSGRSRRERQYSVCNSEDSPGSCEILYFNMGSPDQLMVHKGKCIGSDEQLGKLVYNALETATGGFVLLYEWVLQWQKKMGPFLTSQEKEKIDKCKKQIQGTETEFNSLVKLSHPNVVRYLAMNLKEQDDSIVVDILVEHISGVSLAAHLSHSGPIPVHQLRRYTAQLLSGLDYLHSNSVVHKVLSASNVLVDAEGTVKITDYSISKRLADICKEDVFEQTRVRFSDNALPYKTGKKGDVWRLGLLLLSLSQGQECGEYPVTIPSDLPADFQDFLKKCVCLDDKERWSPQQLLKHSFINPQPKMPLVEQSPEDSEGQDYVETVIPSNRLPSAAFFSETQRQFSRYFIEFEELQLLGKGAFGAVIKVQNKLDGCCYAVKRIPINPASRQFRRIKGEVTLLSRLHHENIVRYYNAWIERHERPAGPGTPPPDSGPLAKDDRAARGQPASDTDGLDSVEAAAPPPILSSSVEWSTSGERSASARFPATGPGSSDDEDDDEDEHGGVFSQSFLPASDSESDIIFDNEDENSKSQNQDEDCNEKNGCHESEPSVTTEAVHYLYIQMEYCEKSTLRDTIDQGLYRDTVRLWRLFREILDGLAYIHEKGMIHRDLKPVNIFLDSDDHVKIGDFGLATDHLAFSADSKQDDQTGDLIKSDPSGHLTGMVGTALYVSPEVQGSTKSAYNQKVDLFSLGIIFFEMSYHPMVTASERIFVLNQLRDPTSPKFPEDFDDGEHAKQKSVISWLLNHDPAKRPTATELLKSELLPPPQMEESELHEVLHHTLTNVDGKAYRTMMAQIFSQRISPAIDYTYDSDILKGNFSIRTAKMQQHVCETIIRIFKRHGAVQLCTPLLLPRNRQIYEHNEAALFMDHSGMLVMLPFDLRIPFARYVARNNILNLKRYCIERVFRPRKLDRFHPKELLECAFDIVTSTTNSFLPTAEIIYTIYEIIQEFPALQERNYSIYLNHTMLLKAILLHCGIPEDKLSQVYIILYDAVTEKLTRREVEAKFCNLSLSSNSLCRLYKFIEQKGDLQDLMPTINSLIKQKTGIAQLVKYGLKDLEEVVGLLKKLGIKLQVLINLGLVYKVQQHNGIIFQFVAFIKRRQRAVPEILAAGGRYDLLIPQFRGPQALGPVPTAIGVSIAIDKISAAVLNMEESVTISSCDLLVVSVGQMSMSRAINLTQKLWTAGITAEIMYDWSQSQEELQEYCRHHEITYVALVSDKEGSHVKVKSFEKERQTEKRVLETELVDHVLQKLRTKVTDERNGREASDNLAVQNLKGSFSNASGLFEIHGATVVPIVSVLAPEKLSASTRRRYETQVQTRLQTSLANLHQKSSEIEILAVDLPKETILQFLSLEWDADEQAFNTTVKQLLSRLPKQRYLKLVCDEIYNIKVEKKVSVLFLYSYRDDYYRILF", "test": "Inhibition of GCN2 domain2 Lys2 labeling site in human A-375 cells at 0.05 uM by KiNativ Profiling analysis relative to control", "type": "cell-based"}, "[7]": {"target": "T3, Serine/threonine-protein kinase D1 (Homo sapiens) (UniProt Q15139)", "T3 sequence (whole entry)": "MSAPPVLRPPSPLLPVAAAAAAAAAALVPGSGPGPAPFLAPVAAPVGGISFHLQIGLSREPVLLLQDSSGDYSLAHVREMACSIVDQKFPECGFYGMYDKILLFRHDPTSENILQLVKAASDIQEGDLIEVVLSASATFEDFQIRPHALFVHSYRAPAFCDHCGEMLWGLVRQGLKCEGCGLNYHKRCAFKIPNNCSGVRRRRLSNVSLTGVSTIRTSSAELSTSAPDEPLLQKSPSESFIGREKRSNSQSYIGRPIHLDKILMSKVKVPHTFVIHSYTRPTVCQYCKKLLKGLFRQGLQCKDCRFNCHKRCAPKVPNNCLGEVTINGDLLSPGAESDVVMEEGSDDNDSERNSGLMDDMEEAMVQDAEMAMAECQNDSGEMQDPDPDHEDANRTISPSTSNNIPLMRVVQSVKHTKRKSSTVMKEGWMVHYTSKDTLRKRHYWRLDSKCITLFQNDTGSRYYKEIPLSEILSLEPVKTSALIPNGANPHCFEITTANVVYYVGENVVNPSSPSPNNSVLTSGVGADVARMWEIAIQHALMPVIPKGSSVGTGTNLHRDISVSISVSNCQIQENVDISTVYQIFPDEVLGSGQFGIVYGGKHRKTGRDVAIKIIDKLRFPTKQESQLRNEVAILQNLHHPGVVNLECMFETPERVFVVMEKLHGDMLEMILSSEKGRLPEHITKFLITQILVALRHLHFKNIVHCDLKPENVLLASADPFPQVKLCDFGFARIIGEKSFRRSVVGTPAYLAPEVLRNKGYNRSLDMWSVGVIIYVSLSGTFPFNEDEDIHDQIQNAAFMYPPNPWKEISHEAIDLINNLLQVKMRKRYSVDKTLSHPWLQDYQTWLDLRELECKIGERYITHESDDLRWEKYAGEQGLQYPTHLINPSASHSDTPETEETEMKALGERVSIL", "test": "Inhibition of PRKD1 (unknown origin) at 1 uM by Ambit Kinomescan binding assay relative to control"}},
  "note": "Active and inactive are the calls of the source. No cut-off for these calls is given here.",
  "data": [
    {"compound": "CCN1CCN(Cc2ccc(NC(=O)c3ccc(C)c(Oc4ccnc5[nH]ccc45)c3)cc2C(F)(F)F)CC1", "values": [
      {"measurement": "inhibition", "setting": "[1]", "result": 4.5, "unit": "%"},
      {"measurement": "inhibition", "setting": "[2]", "result": "inactive"},
      {"measurement": "inhibition", "setting": "[3]", "result": -7.6, "unit": "%"},
      {"measurement": "inhibition", "setting": "[4]", "result": "inactive"}
    ]},
    {"compound": "CNc1cc(Oc2cc(C(=O)Nc3cc(N4CCN(C)CC4)cc(C(F)(F)F)c3)ccc2C)ncn1", "values": [
      {"measurement": "inhibition", "setting": "[5]", "result": 20.7, "unit": "%"}
    ]},
    {"compound": "CCN1CCN(Cc2ccc(NC(=O)c3ccc(C)c(/C=C/c4cnc5[nH]ccc5c4OC)c3)cc2C(F)(F)F)CC1", "values": [
      {"measurement": "inhibition", "setting": "[6]", "result": -0.9, "unit": "%"},
      {"measurement": "inhibition", "setting": "[7]", "result": 100, "unit": "%"}
    ]}
  ]
}
